Entries after “also recorded” stand apart in the source; their conditions may differ.
Key:
[1] = target: T1, human TLR2 (Homo sapiens, UniProt O60603); assay: TLR2 reporter assay (HEK-293-TLR cells, SEAP); assay type: cell-based; settings: concentrations 5 uM up to 20 uM
T1 construct: host or cells: recombinant HEK-293-TLR cell lines
Procedure: These cell lines functionally over-express human TLR2 protein as well as a reporter gene which is a secreted alkaline phosphatase (SEAP). The production of this reporter gene is driven by an NFkB inducible promoter. The TLR reporter cell lines activation results are given as optical density values (OD).
20 μl of each test article were used to stimulate the hTLR2 reporter cell lines in a 200 μl of final reaction volume. Samples were tested in duplicate, with at least two concentrations tested—20 uM and 10 uM.
Compounds were tested using a TLR2 reporter assay (see general methods) that measured for stimulation of the TLR2 receptor. Stimulatory effect was measured as an increase in optical density, as compared to the negative control (OD) due to release of secreted alkaline phosphatase (SEAP) and is shown in table 2.

[2] = tested on: E. coli, S. salivarius, L. casei, B. longum or M. luteus; assay: Direct antibacterial activity, all bacterial strains tested (summary); assay type: cell-based
Procedure: The bioactivity of macrolide compounds against 4 strains of common gut bacteria (Escherichia coli, Streptococcus salivarius subsp. salivarius, Lactobacillus casei and Bifidobacterium longum subsp. infantis) and common mammalian skin isolate Micrococcus luteus, was assessed using the Minimum Inhibitory Concentration (MIC) assay. Bacterial strains were purchased from DSMZ (Brunswick, Germany) except M. luteus which was obtained from NCIMB, and stored in 20% glycerol at −80° C. Stock solutions (100% DMSO) of positive controls (azithromycin and erythromycin), and of test compounds 1 and 2 were diluted in broth to working stock concentrations of 256 μg/ml (final assay testing concentration range 128 μg/ml to 0.00391 μg/ml). Stock solutions of all other compounds were diluted in broth to working stock concentrations of 128 μg/ml (final assay testing concentration range 64 μg/ml to 0.00195 μg/ml). Bacterial strains were cultivated in appropriate broth in an anaerobic chamber at 37° C., except for M. luteus which was incubated aerobically at 37° C. 18 h cultures were diluted in broth to an OD595 of 0.1 and then further diluted 1:10. In 96-well plates, in duplicate, 200 μl working stock of test compound was transferred to well 1 and serially diluted (1:2) in broth. 100 μl bacterial suspension was aliquoted into each well and mixed thoroughly. Appropriate sterility controls were included and plates were incubated in an anaerobic chamber, or aerobically (M. luteus) at 37° C. for 18 h. The MIC was determined to be the concentration of test compound in the first well with no visible growth.

[3] = Caco-2 bidirectional permeability assay; assay type: in vitro ADME; settings: human, Caco-2, 10 μM, 90 minutes
Procedure: (§1) 10 μM Test article was added to the apical (A) surface of Caco-2 cell monolayers (in HBSS buffer with 0.3% DMSO and 5 μM LY at 37 degrees C.) and compound permeation into the basolateral (B) compartment measured following 90 minutes incubation. This was also performed in the reverse direction (basolateral to apical) to investigate active transport. LC-MS/MS is used to quantify levels of both the test and standard control compounds. Efflux ratio was calculated by dividing the B to A permeability by the […]. Drug permeability: Papp=(VA/(Area×time))×([drug]accepter/(([drug]initial,donor)×Dilution Factor). Assessment of Metabolic Stability (Microsome Stability Assay)
(§2) Compounds were tested using a standard caco-2 bidirectional permeability assay (see general methods).

[4] = tested on: PBMCs from cytomegalovirus (CMV) infected donors; assay: Cytomegalovirus (CMV) antigen cultures; assay type: cell-based, Human
Procedure: Human peripheral blood mononuclear cells (PBMCs) were purified from healthy CMV positive donors with Ficoll-Paque density centrifugation. The PBMC were labeled with 5 μM celltrace violet (Invitrogen) in PBS for 15 minutes and then washed with complete cell culture medium. The labeled PBMC was cultured in the presence of a peptide library spanning the CMV pp65 protein (1 μg peptide/ml, JPT) in AIM-V media (Invitrogen) supplemented with L-glutamine, Sodium pyruvate (Sigma), 10% fetal bovine serum, 100 μg/mL penicillin and 100 μg/mL streptomycin (Hyclone) for 6-8 days in 37° C., 5% CO2. Cell proliferation was assessed with flow cytomtery using a BD FACS Canto II flow cytometer.
Study 7: Virus specific T cell proliferation was also affected by compound 1. […] CD127 is crucial for T cell homeostasis, differentiation and function, and reduced expression correlates with disease severity in HIV and other chronic viral diseases (Crawley et al Sem Imm 2012).
Study 8: PBMCs from CMV infected donors cultured in the presence of CMV antigen where either untreated or exposed to compound 1 or compound 2 for 3 days.

[5] = tested on: C57bl/6 mice; assay: CD25 high cells in blood of mice after i.v. injection; assay type: in vivo; settings: highest dose of 5 mg/kg, 24 h
Procedure: FIG. 14: % CD25 high cells in blood of C57bl/6 mice injected 24 h previously with indicated dose of compound 1. CD25 expression was measured by flow cytometry.
Study 13: Compound 1 was administered i.v. to C57bl/6 mice at 0.165 mg/kg to 5 mg/kg. CD25+ cell abundance was increased in animals receiving the highest dose of 5 mg/kg (FIG. 14), as was body weight in the same group (not shown).

[6] = tested on: PBMCs; assay: Cytokine secretion from PBMC, cytometric bead assay; assay type: cell-based, Human; settings: 2 days
Description: (§3) Study 10: PBMCs and macrophages where exposed to compounds 1 or 2 for 2 days (FIG. 11).
(§4) Study 11: PBMCs and macrophages where exposed to compounds 1 and 2 for 2 days.
(§5) Study 12: PBMCs, macrophages and CD4+ T cells where exposed to compounds 1 and 2 for 2 days.

[7] = tested on: C57bl/6 mice; assay: MHC class I expression on CD11b+ splenocytes of mice after i.v. injection; assay type: in vivo; settings: spleen 24 h later
Procedure: FIG. 15: % MHC class I high CD11 b+ cells in spleen of 3 individual C57bl/6 mice injected 24 h previously with indicated compound. MHC class I and CD11 b expression was measured by flow cytometry.
Study 14: Compound 1 or 2 was administered i.v. to C57bl/6 mice.

[8] = tested on: Caco-2 cell monolayers; assay: Caco-2 bidirectional permeability assay; assay type: in vitro ADME
Procedure: as §1, §2

[9] = tested on: Macrophages from healthy donors; assay: Cytokine secretion from macrophages, cytometric bead assay; assay type: cell-based, Human
Procedure: Study 9: Macrophages from healthy donors where exposed to compounds 1 or 2 for 48 hours. […] Compound 1 is therefore able to induce IFN-gamma secretion in macrophages from healthy donors.
as §3, §4, §5

[10] = tested on: CD4+ T cells; assay: IL-1beta secretion from CD4+ T cells, cytometric bead assay; assay type: cell-based, Human; settings: 2 days
Description: as §5

T1 sequence (O60603 21-784): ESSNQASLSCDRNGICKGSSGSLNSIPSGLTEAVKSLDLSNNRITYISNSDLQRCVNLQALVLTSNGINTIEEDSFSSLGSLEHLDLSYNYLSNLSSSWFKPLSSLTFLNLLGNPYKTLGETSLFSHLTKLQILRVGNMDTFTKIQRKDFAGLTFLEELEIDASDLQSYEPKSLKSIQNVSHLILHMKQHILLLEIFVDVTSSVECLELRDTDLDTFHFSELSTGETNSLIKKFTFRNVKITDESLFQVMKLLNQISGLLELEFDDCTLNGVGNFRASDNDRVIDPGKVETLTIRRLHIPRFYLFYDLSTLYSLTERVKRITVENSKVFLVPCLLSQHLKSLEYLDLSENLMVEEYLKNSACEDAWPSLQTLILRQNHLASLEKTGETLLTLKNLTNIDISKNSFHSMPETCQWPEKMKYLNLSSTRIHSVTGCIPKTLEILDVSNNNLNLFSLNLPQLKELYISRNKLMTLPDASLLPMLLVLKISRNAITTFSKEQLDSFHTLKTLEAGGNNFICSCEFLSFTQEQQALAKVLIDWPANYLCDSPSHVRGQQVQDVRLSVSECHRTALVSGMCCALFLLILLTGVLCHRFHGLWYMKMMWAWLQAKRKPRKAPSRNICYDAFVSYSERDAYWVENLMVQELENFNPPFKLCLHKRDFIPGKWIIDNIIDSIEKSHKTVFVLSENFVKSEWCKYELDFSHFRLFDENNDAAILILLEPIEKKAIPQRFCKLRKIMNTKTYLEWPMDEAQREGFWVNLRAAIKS

SMILES	TLR2 stimulation (in words) [1]	antibacterial activity (in words) [2]	efflux ratio at 90 min, 10 μM [3]	Papp A→B at 90 min, 10 μM ([3]; apical to basolateral)	IFN-gamma secretion ([4]; 3 days)	IL-7 receptor α (CD127) on activated CMV specific CD8+ T cells ([4]; 6 days)	CD25+ cell abundance in blood [5]	IL-1beta secretion in PBMCs [6]	IL-12p70 secretion from PBMCs [6]	expression of RANTES in PBMCs [6]	splenocyte cells (CD11b+) with high MHC I expression [7]	cell permeability compared with Azithromycin and EM703 (in words) [8]	efflux ratio compared with Azithromycin and EM703 (in words) [8]	IL-1beta secretion in macrophages ([9]; 2 days)	IL-12p70 secretion from macrophages ([9]; 2 days)	expression of RANTES in macrophages ([9]; 2 days)	IFN-gamma secretion from macrophages ([9]; 48 hours)	IL-1beta secretion in CD4+ T cells [10]
CC[C@H]1OC(=O)[C@H](C)[C@@H](O[C@H]2C[C@@](C)(OC)[C@@H](O)[C@H](C)O2)[C@H](C)[C@@H](O[C@@H]2O[C@H](C)C[C@H](N(C)C)[C@H]2O)[C@](C)(O)C[C@@H](C)C(=O)[C@H](C)[C@@H](O)[C@]1(C)O [Erythromycin, Erythromycin A, reference compound]	little or no stimulation	potent activity																
CC[C@H]1OC(=O)[C@H](C)[C@@H](O[C@H]2C[C@@](C)(OC)[C@@H](O)[C@H](C)O2)[C@H](C)[C@@H](O[C@@H]2O[C@H](C)C[C@H](N(C)C)[C@H]2O)[C@](C)(O)C[C@@H](C)CN(C)[C@H](C)[C@@H](O)[C@]1(C)O [Azithromycin, reference compound]	little or no stimulation	potent activity	> 77.6	< 0.14 ×10⁻⁶ cm/s														
CC[C@H]1OC(=O)[C@H](C)[C@@H](O[C@H]2C[C@@H](N(C)C)[C@H](O)[C@@H](C)O2)[C@H](C)[C@@H](O)[C@](C)(O)C[C@@H](C)CN(C)[C@H](C)[C@@H](O)[C@]1(C)O [Compound 1]	stimulated TLR2 at concentrations down to 5 uM	no antibacterial activity; also recorded: no or minimal antibacterial effect	63.4		induced secretion of high levels	increased expression	increased	slightly	secreted IL-12p70	twofold upregulation	increase	more cell permeable	lower efflux ratio	increased	secreted IL-12p70	high expression	secreted IFN-gamma	no IL-1beta was induced
